For one assay, the target named is T1, alpha2-adrenoceptor (Cavia porcellus, UniProt Q60474).
T1 construct: The left atrium is removed, dissected free of extraneous tissue and mounted in a 2 ml superfusion chamber; from tissue; host or cells: left atrium of male guinea pig (sympathetic nerve terminals)
T1 sequence (Q60474 1-464): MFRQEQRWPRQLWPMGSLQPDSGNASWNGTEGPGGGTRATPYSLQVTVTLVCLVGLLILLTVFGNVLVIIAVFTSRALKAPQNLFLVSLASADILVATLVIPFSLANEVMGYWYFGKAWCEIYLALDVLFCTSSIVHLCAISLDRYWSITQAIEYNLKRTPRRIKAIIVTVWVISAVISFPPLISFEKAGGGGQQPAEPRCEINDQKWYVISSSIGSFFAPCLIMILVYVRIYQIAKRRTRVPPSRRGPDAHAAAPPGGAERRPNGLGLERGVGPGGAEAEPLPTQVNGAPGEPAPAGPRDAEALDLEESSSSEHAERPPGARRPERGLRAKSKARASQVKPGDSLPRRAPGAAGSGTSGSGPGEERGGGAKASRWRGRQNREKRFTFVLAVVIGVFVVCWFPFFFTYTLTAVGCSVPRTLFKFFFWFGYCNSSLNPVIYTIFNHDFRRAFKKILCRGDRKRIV
Description: prejunctional alpha2-antagonist activity in isolated superfused guinea pig left atrium (shift of clonidine concentration-response curve). Format: cell-based. Here is the method:
Briefly, the heart is removed from a pentobarbital-anesthetized male guinea pig. The left atrium is removed, dissected free of extraneous tissue and mounted in a 2 ml superfusion chamber. The tissue is paced at 60 pulse/minute and the sympathetic nerves excited at 6 minute intervals by field stimulation. The response to nerve stimulation is measured as the difference in contractile force between the basal contraction and peak contraction following a nerve stimulation. A concentration-response curve for clonidine (a known alpha2 -agonist) is prepared by administering increasing concentrations of clonidine following each successive stimulation. The tissue is, then, superfused with the alpha2 -antagonist to be tested for thirty minutes and the clonidine concentration-effect curve is repeated in the presence of antagonist. The receptor dissociation constant of the antagonist (KB) is defined as the antagonist concentration required to shift the log concentration-response curve of the agonist to the right by a factor of 2.
Pharmacol. 309 217-224 (1979).

For the next assay, the system named is platelet. As to the kind of experiment: platelet test (method not described). Format: cell-based.

Counter-ions that a name gives are not always drawn. Like-named read-outs stand apart in the source and are kept apart here.

A word on the Kb: it is the equilibrium dissociation constant of an antagonist, usually derived from a functional assay. For `C=CCSc1ccc2c(c1)CCNCC2` [Example 1, 7-allylthio-2,3,4,5-tetrahydro-1H-3-benzazepine hydrochloride], on alpha2-adrenoceptor, the Kb came out at 380 nM.

A word on the EC50: it is the concentration at which the effect is half-maximal. Higher therefore signals lower potency in that assay. `C=CCOc1ccc(Cl)c2c1CCN(C)CC2` [Example 2, 9-allyloxy-6-chloro-3-methyl-2,3,4,5-tetrahydro-1H-3-benzazepine hydrochloride]: the Kb on alpha2-adrenoceptor came to 320 nM. Besides, the response in the assay on platelet was half-maximal at 90 nM (EC50).

For `C=CCOc1cccc2c1CCN(C)CC2` [Example 5, 6-allyloxy-3-methyl-2,3,4,5-tetrahydro-1H-3-benzazepinehydrochloride], the Kb at alpha2-adrenoceptor (isolated superfused guinea pig left atrium, clonidine as agonist, antagonist superfused thirty minutes, read-out: KB, guinea pig atrium (receptor dissociation constant of the antagonist)) was 160 nM.
